According to patent publication US6881824B1, “Peptides suitable for use in antigen specific immunosuppressive therapy” (Akzo Nobel N.V., priority 1996, dated 2005):
Ends that are not written are not given here.

Assays:
[1] = system: PBMC from healthy donors carrying the DR4 (DRB1*0401) specificity; assay: Peptide-induced proliferative responses of PBMC from healthy donors; assay type: cell-based, human; settings: for Peptide-induced proliferative response of PBMC, HD 230: healthy donor 230, 0401, R
Protocol: Peripheral blood samples from 5 healthy donors carrying the DR4(DRB1*0401) specificity were obtained with informed consent and included in this study as a control.
(§1) In order to identify T-cell epitopes within HC gp-39, 59 peptides of 16 AA in length, overlapping by 10 AA were tested for their capacity to induce a proliferative response in PBMC from RA patients and healthy controls carrying the DR4 (DRB1*0401) specificity (Table 1).
(§2) PBMC obtained from heparinized venous peripheral blood were isolated by standard centrifugation on a Ficoll-Paque gradient. Cells were cultured in four-fold at a concentration of 1,5×10^5 cells/well in medium supplemented with 10% heat-inactivated, autologous plasma, L-glutamine, 2-ME and antibiotics in flatbottomed microtiter plates. Cells were incubated in medium alone or in the presence of phytohaemagglutinin (PHA) (2:5 μg/ml) to assert cell viability, or in the presence of 10 or 100 μg/ml of the HC gp-39-derived peptides. In several cases, sets of 2 or 3 sequential peptides were tested due to limited PBMC numbers of individual donors. Cultures were incubated in a total volume of 210 μl for 7 days at […] in a humidified atmosphere of 5% CO2. Cultures were pulsed during the last 18 hours with 0.25 μCi ^3H-thymidine ([^3H]TdR). Cells were harvested on glassfiber filters and [^3H] TdR incorporation was measured by gas scintillation (Packard Matrix 96 βcounter). Only peptides inducing a proliferative response at both 10 and 100 μg/ml were considered to contain a T-cell epitope. Responses were defined positive if stimulation index values (SI, antigen-specific counts per 5 min (cp5 m)/background cp5 m) exceeded or equaled 2.
(§3) T-cell reactivity to HC gp-39-derived peptide as analyzed by measuring the PBMC proliferative response in DR4 (DRB1*0401)-positive RA patients and healthy donors. Proliferative responses were tested in autologous plasma. In Table IIIA and IIIB the results of 7 experiments are presented showing the responses of RA patients (Table IIIA) and the responses of healthy donors (Table IIIB) to 59 overlapping sequences derived from HC gp-39.

[2] = biological target: T1, DR4 (DRB1*0401) molecules (Homo sapiens, UniProt P01903+P01911, A100K/A169T/F76Y/I96L/K127E/L162R/M171V/N62H/P40V/Q125Y/R42H/S133A/S149N/S66Y/V115G/V209L/W38E); assay: Peptide HLA-DR binding assay (semi-quantitative competition binding); settings: for IC50: competition with biotinylated marker peptide HA 309 Y→F, pH5.0, 44 hr RT
T1 construct: molecules were purified from the homozygous EBV-transformed human B lymphoblastoid cell lines Huly138IC2 and BM92 using the mAb; endogenous in cells
Protocol: DR4 (DRB1*0401) and DR4 (DRB1*0404) molecules were purified from the homozygous EBV-transformed human B lymphoblastoid cell lines Huly138IC2 and BM92 using the mAb t243, directed against a monomorphic determinant on the DR-complex (Lampson, L. A and R. Levy (1980), J. Immunol. 125:293 299).
The peptide binding studies were performed using a semi-quantitative competition binding assay (Joosten et al 1994, Int. Immunol. 6, 751). Briefly, purified HLA-DR molecules (30 nM DR4(DRB1*0401) or 15 nM DR4 (DRB1*0404) were incubated at pH5.0 with 50 nM biotinylated marker peptide (HA 309y→F) and a concentration range of competitor peptide in a final volume of 25 μl binding buffer (PBS containing 0.01% […], 0.05% NP-40, 5% DMSO, 1 mM AEBSF, 1 mM N-ethyl maleimide, 8 mM EDTA and 10 μm pepstatin A). After 44 hr of incubation at RT, HLA DR bound marker peptide was separated from free marker peptide using a 96 well vacuum dotblot apparatus (Hybri. dot, BRL) and a nitrocellulose membrane (Hybond ECL, Amersham, UK). The nitrocellulose filters were blocked with 0.5% DNA blocking reagent (Boehringer) in 0.1 M maleic acid, 150 mM NaCl, pH7.5.
After 0.5-1 hr, the filters were washed in PBS, 0.05% Tween 20 (Sigma) and incubated with Strepcavidin-HRPO (Southern Biotechnology) in a 1:10.000 dilution. Biotinylated peptides were detected by enhanced chemiluminescence using a Western Blot ECL kit (Amersham). Exposure of the preflashed films (Hyperfilm-ECL, Amersham) was for 10 min. The spots were analysed by scanning the films and using Image Quant/Excel software for analysis.
The affinity of a given peptide for binding DRB1*0401-encoded molecules was related to competition with the marker peptide. This relative binding affinity was defined as the peptide concentration at which the signal was reduced to 50% (IC50).

[3] = system: PBMC from RA patients and healthy controls carrying the DR4 (DRB1*0401) specificity; assay: Proliferative responses of blood mononuclear cells, RA patients and healthy donors taken together; assay type: cell-based, human; settings: for Responses to the individual peptides (PBMC proliferation), identifying T-cell epitopes: any donor
Protocol: as §1, §2, §3

[4] = system: PBMC from RA patients carrying the DR4 (DRB1*0401) specificity; assay: Peptide-induced proliferative responses of PBMC from RA patients; assay type: cell-based, human; settings: for Peptide-induced proliferative response of PBMC, RA 272: RA patient 272, 0401, R; for Peptide-induced proliferative response of PBMC, RA 276: RA patient 276, 0401, R; for Peptide-induced proliferative response of PBMC, RA 286: RA patient 286, 0401, R
Protocol: This study included 7 DR4(DRB1*0401)-positive patients diagnosed as suffering from RA according to the ARA criteria (Arnett et al., (1988), Arthritis Rheum. 31, 315). Peripheral blood samples were obtained with informed consent. There were five women and two men aged 46-79 years. Their duration of disease ranged from over 10 to over 30 years. Three out of 7 patients had at least 3 swollen joints. […] All patients were on medication: Four patients were treated with prednisone, three patients received anti-rheumatic agents and 4 patients were treated with NSAID's as well.
as §1, §2, §3

[5] = biological target: T2, DR4 (DRB1*0401) molecules purified from the homozygous EBV-transformed human B lymphoblastoid cell line … (human, UniProt P01903 26-254)
[6] = biological target: T2, DR4 (DRB1*0401) molecules purified from …; assay: competition binding assay on purified DR4(DRB1*0401)
[7] = 100 and 10 microgram/ml, 7 days, 3H-thymidine incorporation

Row | Molecule | Presence of T-cell epitopes confirmed by PBMC of healthy donor 230 [1] | Peptide-induced proliferative response of PBMC, HD 230 [1, 7] | Relative affinity of binding to DR4 (DRB1*0401), in words [2] | IC50 ([2]; Table IIIA) | IC50 ([2]; Table IIIB) | Responses to the individual peptides (PBMC proliferation), identifying T-cell epitopes [3] | Peptide-induced proliferative response of PBMC, RA 272 [4, 7] | Response of PBMC from RA patient 272 to individual peptides, in words [4] | IC50 [5] | binding result [6] | also measured
1 | DYAVGYMLRLGAPASK [compound 37, DYAVGYMLRLGAPASK] | confirmed the presence of T-cell epitopes | pos (positive responses to both 100 and 10 microgram/ml of peptide or sets of peptides (SI>2 were regarded positive)) | relatively high affinity | < 1000 nM | < 1000 nM | observed in one or more donors | pos (positive responses to both 100 and 10 microgram/ml of peptide or sets of peptides (SI≧2 were regarded positive)) | appeared to respond |  |  | Peptide-induced proliferative response of PBMC, HD 155 ([1]; healthy donor 155, 0401, R, 100 and 10 microgram/ml, 7 days, 3H-thymidine incorporation): pos (positive responses to both 100 and 10 microgram/ml of peptide or sets of peptides (SI>2 were regarded positive)); Peptide-induced proliferative response of PBMC, HD 235 ([1]; healthy donor 235, 0401, R, 100 and 10 microgram/ml, 7 days, 3H-thymidine incorporation): pos (positive responses to both 100 and 10 microgram/ml of peptide or sets of peptides (SI>2 were regarded positive))
2 | LDRFLCTHIIYSFANI [compound 5, LDRFLCTHIIYSFANI] | confirmed the presence of T-cell epitopes | pos (positive responses to both 100 and 10 microgram/ml of peptide or sets of peptides (SI>2 were regarded positive)) | relatively high affinity | < 1000 nM | < 1000 nM | observed in one or more donors | pos (positive responses to both 100 and 10 microgram/ml of peptide or sets of peptides (SI≧2 were regarded positive)) | appeared to respond |  |  | Peptide-induced proliferative response of PBMC, RA 259 ([4]; RA patient 259, 0401, R, 100 and 10 microgram/ml, 7 days, 3H-thymidine incorporation): pos (positive responses to both 100 and 10 microgram/ml of peptide or sets of peptides (SI≧2 were regarded positive))
3 | QHLDFISIMTYDFHGA [peptide 30, QHLDFISIMTYDFHGA] | confirmed the presence of T-cell epitopes | pos (positive responses to both 100 and 10 microgram/ml of peptide or sets of peptides (SI>2 were regarded positive)) | relatively high affinity | < 1000 nM | < 1000 nM | observed in one or more donors | pos (positive responses to both 100 and 10 microgram/ml of peptide or sets of peptides (SI≧2 were regarded positive)) | appeared to respond |  |  | Peptides or sets of peptides most frequently recognized ([3]; overall, all donors): most frequently recognized; Peptide-induced proliferative response of PBMC, RA 262 ([4]; RA patient 262, 0401, R, 100 and 10 microgram/ml, 7 days, 3H-thymidine incorporation): pos (positive responses to both 100 and 10 microgram/ml of peptide or sets of peptides (SI≧2 were regarded positive)); Peptide-induced proliferative response of PBMC, RA 276 [4, 7]: pos (positive responses to both 100 and 10 microgram/ml of peptide or sets of peptides (SI≧2 were regarded positive)); Peptide-induced proliferative response of PBMC, RA 286 [4, 7]: pos (positive responses to both 100 and 10 microgram/ml of peptide or sets of peptides (SI≧2 were regarded positive))
4 | THIIYSFANISNDHID [compound 6, THIIYSFANISNDHID] | confirmed the presence of T-cell epitopes | pos (positive responses to both 100 and 10 microgram/ml of peptide or sets of peptides (SI>2 were regarded positive)) | relatively high affinity | < 1000 nM | < 1000 nM | observed in one or more donors | pos (positive responses to both 100 and 10 microgram/ml of peptide or sets of peptides (SI≧2 were regarded positive)) | appeared to respond |  |  | Peptide-induced proliferative response of PBMC, RA 276 [4, 7]: pos (positive responses to both 100 and 10 microgram/ml of peptide or sets of peptides (SI≧2 were regarded positive)); Peptide-induced proliferative response of PBMC, RA 286 [4, 7]: pos (positive responses to both 100 and 10 microgram/ml of peptide or sets of peptides (SI≧2 were regarded positive))
5 | YKLVCYYTSWSQYREG [peptide 1, YKLVCYYTSWSQYREG] | confirmed the presence of T-cell epitopes | pos (positive responses to both 100 and 10 microgram/ml of peptide or sets of peptides (SI>2 were regarded positive)) | relatively high affinity | < 1000 nM | < 1000 nM | observed in one or more donors | pos (positive responses to both 100 and 10 microgram/ml of peptide or sets of peptides (SI≧2 were regarded positive)) | appeared to respond |  |  | 
6 | QHLDFISIMTYDFHGA [HC gp-39 peptide 30 (residues 196-211)] |  |  |  |  |  |  |  |  | < 1000 nM | binds | 
7 | YKLVCYYTSWSQYREG [HC gp-39 peptide 1 (residues 22-37)] |  |  |  |  |  |  |  |  | < 1000 nM | binds | 
8 | YLKDRQLAGAMVWALD [HC gp-39 peptide 54 (residues 340-355)] |  |  |  |  |  |  |  |  | < 1000 nM | binds | 
9 | DYAVGYMLRLGAPASK [HC gp-39 peptide 37 (residues 238-253)] |  |  |  |  |  |  |  |  | < 1000 nM | binds | 
10 | TFIKSVPPFLRTHGFD [HC gp-39 peptide 17 (residues 118-133)] |  |  |  |  |  |  |  |  | 1000 to 10000 nM | binds | 
